{
  "source": "patent US20120129834A1",
  "about": "“SEROTONIN RECEPTOR ANTAGONISTS FOR USE IN THE TREATMENT OF HUNTINGTON'S DISEASE” (BUCK INSTITUTE FOR RESEARCH ON AGING, priority 2010, published 2012)",
  "key": {"STHdh111Q/111Q cells": {"system": "STHdh111Q/111Q cells", "test": "viability (ATP) assay of cell death in serum deprived STHdh111Q/111Q cells (Prestwick library screen and dose/response)", "type": "cell-based", "details": "for loss of viability (ATP levels): dose/response, STHdh111Q/111Q serum deprivation model, FIG. 17 upper panel, n=3/dose; for huntingtin-mediated cell death: screen of the Prestwick Chemical library, cell-based assay of mutant huntingtin-mediated cell death", "description": "Viability as measured by ATP levels (normalized to cell number) in cells after 24 h of serum deprivation. Data are show as percent DMSO control (100%). […]\n(§1) This library is composed of 1,200 marketed drugs with favorable safety, bioavailability and efficacy properties."}, "[1]": {"test": "weight loss in the mouse model", "type": "in vivo", "details": "7.5 mg/kg, FIG. 21"}, "DARPP-32": {"system": "DARPP-32", "test": "DARPP-32 expression as measure of disease progression", "type": "in vivo", "details": "mouse model of HD, FIG. 24 panels A-C"}, "ERK pathway": {"system": "ERK pathway", "test": "activation of the ERK pathway in vivo (striatum, cortex)", "set-up": "species or system mouse", "details": "FIG. 23"}, "R6/2 mouse model of HD [2]": {"system": "R6/2 mouse model of HD", "test": "open field behavior analysis in R6/2 mice", "type": "in vivo", "details": "treated vs control", "excerpt": "as §1"}, "R6/2 mouse model of HD [3]": {"system": "R6/2 mouse model of HD", "test": "lifespan of R6/2 mice", "type": "in vivo", "details": "10 mg/kg IP daily, treatment groups compared", "excerpt": "This may reflect a specific mechanism of action for pizotifen."}, "R6/2 mouse model of HD [4]": {"system": "R6/2 mouse model of HD", "test": "rotarod performance of R6/2 HD mice", "type": "in vivo", "details": "for rotarod performance / rotarod deficit: at 9 weeks of age, 10 mg/kg"}, "caspase-3/7": {"system": "caspase-3/7", "test": "caspase activation assay, STHdh111Q/111Q serum deprivation model", "type": "cell-based", "details": "dose/response, FIG. 17 lower panel, n=3/dose"}},
  "note": "Entries after “also recorded” stand apart in the source; their conditions may differ.",
  "data": [
    {"molecule": "CN1CCC(=C2c3ccccc3C=Cc3ccccc32)CC1.Cl", "note": "[Cyproheptadine, 4-(5H-dibenzo[a,d]cyclohepten-5-ylidene)-1-methylpiperidine hydrochloride]", "values": [
      {"measurement": "loss of viability (ATP levels)", "setting": "STHdh111Q/111Q cells", "result": "rescue loss of viability"},
      {"measurement": "huntingtin-mediated cell death", "setting": "STHdh111Q/111Q cells", "result": "reproducibly suppress huntingtin-mediated cell death in a dose-dependent manner"}
    ]},
    {"molecule": "CN1CCC(=C2c3ccccc3CCc3sccc32)CC1", "note": "[Pizotifen, 4-(1-methyl-4-piperidylidine)-9,10-dihydro-4H-benzo-[4,5]cyclohepta[1,2]-thiophene]", "values": [
      {"measurement": "loss of viability (ATP levels)", "setting": "STHdh111Q/111Q cells", "result": "rescue loss of viability"},
      {"measurement": "huntingtin-mediated cell death", "setting": "STHdh111Q/111Q cells", "result": "reproducibly suppress huntingtin-mediated cell death in a dose-dependent manner"},
      {"measurement": "weight loss", "setting": "[1]", "result": "doesn't improve or worsen weight loss"},
      {"measurement": "DARPP-32 decrease (measure of disease progression)", "setting": "DARPP-32", "result": "rescued"},
      {"measurement": "activation of the ERK pathway in cortex", "setting": "ERK pathway; cortex", "result": "not observed; also recorded: not cortex activation"},
      {"measurement": "activation of the ERK pathway in striatum", "setting": "ERK pathway; striatum", "result": "activation of the ERK pathway in vivo; also recorded: striatal, but not cortex activation"},
      {"measurement": "open field, general activity level", "setting": "R6/2 mouse model of HD [2]", "result": "general activity level of treated animals was normal"},
      {"measurement": "open field, general activity level", "setting": "R6/2 mouse model of HD [2]; listed as pizotifen", "result": "no statistical differences"},
      {"measurement": "lifespan", "setting": "R6/2 mouse model of HD [3]", "result": "no statistical differences"},
      {"measurement": "dose dependence of correction of rotarod", "setting": "R6/2 mouse model of HD [4]; FIG. 20", "result": "dose-dependent effect; also recorded: dose dependent response"},
      {"measurement": "rotarod performance", "setting": "R6/2 mouse model of HD [4]; R6/2 mice, 10 mg/kg IP daily from 5 weeks of age, after one week of treatment", "result": "improved"},
      {"measurement": "rotarod performance / rotarod deficit", "setting": "R6/2 mouse model of HD [4]; R6/2 mice, 10 mg/kg IP daily from 5 weeks of age", "result": "significant beneficial effects"},
      {"measurement": "rotarod performance / rotarod deficit", "setting": "R6/2 mouse model of HD [4]; R6/2 mice, 10 mg/kg IP daily from 5 weeks of age, listed as pizotifin", "result": "corrects the rotarod deficit to near wild-type levels"},
      {"measurement": "rotarod performance", "setting": "R6/2 mouse model of HD [4]; R6/2 mice, 10 mg/kg IP daily, 6-week old group, after three days of treatment", "result": "significant improvement"},
      {"measurement": "motor deficits (Rotarod performance)", "setting": "R6/2 mouse model of HD [4]; R6/2 mice, two independent studies", "result": "robustly correct motor deficits (i.e. Rotarod performance) in R6/2 to near wild-type levels"}
    ]},
    {"molecule": "CN1CCN(C2=Nc3ccccc3Oc3ccc(Cl)cc32)CC1", "note": "[Loxapine, 2-Chloro-11-(4-methylpiperazin-1-yl)dibenzo[b,f][1,4]oxazepine]", "values": [
      {"measurement": "loss of viability (ATP levels)", "setting": "STHdh111Q/111Q cells", "result": "rescue loss of viability"},
      {"measurement": "huntingtin-mediated cell death", "setting": "STHdh111Q/111Q cells", "result": "reproducibly suppress huntingtin-mediated cell death in a dose-dependent manner"},
      {"measurement": "caspase-3/7 activation", "setting": "caspase-3/7", "result": "rescue"}
    ]}
  ]
}
